The record followed here is US10383841B2, “Antimicrobial and antiinflammatory composition” (Denovastella AB, priority 2005, dated 2019).

Holding throughout (format): cell-based
The subject of one experiment is Candida albicans H29. Nature of the experiment: Agar dilution method, MIC. As for the experimental part: (§1) The five strains of Malassezia were CBS7019 M. Furfur, CBS 1871 M. Pachydermatis, CBS7956 M. Slooffiae, CBS7966 M. Globosa and 42132 M. Sympodialis. The Staphylococcus aureus strain and Candida albicans H29 strain (grown on mycobiotic plates). Malassezias were cultured on PO plates and kept in room temperature. Candida albicans were grown on mycobiotic plates at room temperature. Preceding the first experiment the yeasts were reinoculated and stored for five days in a 32° C. thermostat. Afterwards they were continually reinoculated every week to ensure viable strains. S. aureus were refrigerated and reinoculated on a horse blood plate and incubated for one day in 37° C. before being included in any study.
(§2) DST-TG-agar (diagnostic sensitivity test agar) with a glycerol monostearate and tween content to meet the growth requirements of the Malassezias was used. […] The agar was obtained from the Microbiological Laboratories, Sahlgrenska, Gothenburg, Sweden. When received the agar was in a liquid form requiring storage at 55° C.
(§3) The oil extract from example 1 were diluted in DMF (dimethyl formamide) producing a stock solution with 20% extract and 80% DMF. A secondary stock solution was made by diluting a decided volume of the first stem solution in PBS. Finally the solutions were mixed with the soluble agar to obtain concentrations of the extract of 1, 0.5, 0.25, 0.125, 0.0625, 0.05, 0.025 and 0.0125% in the agar. Since the ethanol extract readily dissolved with the agar no emulsifier was needed. The ethanol extract was diluted directly with the agar to obtain concentrations of the extraxt of 1, 0.5, 0.125, 0.1, 0.05, 0.0125, 0.01 and 0.005% in the agar. No precipitations or supernatants were observed.
(§4) Microbes were harvested and suspended into PBS and manually counted in Barker chambers to receive concentrations of 10^7 cells/ml for the Malassezias and 10^5 cells/ml for the Staphylococci and Candida. Due to poor growth of M. globosa, M. slooffiae and emulsions were modified to contain 10^8 cells/ml in the third experiment.
(§5) Using a Pasteur micropipette, plates were inoculated with 20 μl of emulsion. Plates were inoculated with either three or four microorganisms. Control plates containing only agar and plates with mirrored concentration series of DMF and ethanol were made. Additionally, all plates had paralleled controls.
(§6) Plates were incubated in 37° C. for approximately 3 days and then read.

The next experiment deals with M. furfur CBS7019. Nature of the experiment: Agar dilution method, MIC. As for the experimental part: as §1, §2, §3, §4, §5, §6
The subject of a further experiment is M. globosa CBS7966. Nature of the experiment: Agar dilution method, MIC. As for the experimental part: as §1, §2, §3, §4, §5, §6
Experiment [1] has as its system M. pachydermatis CBS 1871. Nature of the experiment: Agar dilution method, MIC. As for the experimental part: as §1, §2, §3, §4, §5, §6
The subject of the next experiment is M. slooffiae CBS7956. Nature of the experiment: Agar dilution method, MIC. As for the experimental part:
as §1, §2, §3, §4, §5, §6

Another experiment deals with M. sympodialis 42132. Nature of the experiment: Agar dilution method, MIC. As for the experimental part:
as §1, §2, §3, §4, §5, §6

The subject of the next experiment is Staphylococcus aureus. Nature of the experiment: Agar dilution method, MIC. As for the experimental part: as §1, §2, §3, §4, §5, §6
The test system of experiment [2] is all microorganisms (five Malassezia strains, Candida albicans, Staphylococcus aureus). Nature of the experiment: Agar dilution method, summary over all microorganisms. As for the experimental part: as §1, §2, §3
Microbes were harvested and suspended into PBS and manually counted in Barker chambers to receive concentrations of 10^7 cells/ml for the Malassezias and 10^5 cells/ml for the Staphylococci and Candida. […]
as §6

Setting [3] is: Experiment II, — = no MIC up to maximum titre of that line (Cineole 0.125%, DNS in ethanol 2.5% 0.025%).
[4] abbreviates: Experiment II, agar control: poor growth.

Molecules are shown by their SMILES.

Turning to `CC12CCC(CC1)C(C)(C)O2` [Cineole, 1,8-cineole], the MIC amounted to 0.125% against Candida albicans H29 (setting [3]); 0.500% with Candida albicans H29 (Experiment III); 0.125% against M. furfur CBS7019 (setting [3]); 0.500% against M. furfur CBS7019 (Experiment III); 0.125% against M. globosa CBS7966 (setting [4]); 1.000% against M. globosa CBS7966 (Experiment III, 10^8 cells/ml). For the same molecule, the MIC in the experiment on M. globosa CBS7966 (Experiment III, 10^8 cells/ml, listed as 1,8-cineole) is listed as 1.0%; in experiment [1] (setting [3]), 0.125%; in experiment [1] (Experiment III) it was 0.500%; in the experiment with M. slooffiae CBS7956 (setting [4]), 0.125%; with M. slooffiae CBS7956 (Experiment III, 10^8 cells/ml), 0.500%; in the experiment on M. sympodialis 42132 (setting [3]) it was 0.0625%. Further, the MIC in the experiment on M. sympodialis 42132 (Experiment III) and against Staphylococcus aureus (Experiment III) was 0.500% each time. Besides, the “highest attained MIC of studied substances” value in experiment [2] is 0.5%. For the same molecule, the “nearly all MICs” value in experiment [2] (subsequent experiment, four times the initial value) turned out to be 0.5%.
With `C=CC1(C)CCC(C(C)C(=O)CC=C(C)C)O1` (stereo not drawn) [Davanone, davanone], the MIC amounted to 0.0625% in the experiment with Candida albicans H29 (setting [3]); 0.0625% in the experiment on M. furfur CBS7019 (setting [3]); 0.025% in the experiment with M. globosa CBS7966 (setting [4]); 0.0625% in experiment [1] (setting [3]); 0.0125% in the experiment with M. slooffiae CBS7956 (setting [4]); 0.0125% against M. sympodialis 42132 (setting [3]). Besides, the MIC in the experiment on Staphylococcus aureus (setting [3]) is 0.125%. The MIC spread in experiment [2] (over the microorganisms) was 0.0125-0.125%.
